Reference: patent US8338465B2, “Cyclic carboxylic acid rhodanine derivatives for the treatment and prevention of tuberculosis” (priority 2006, dated 2012)
Where two headings read alike, the source gives them in different places.

Biological target: T1, dihydrolipoamide acyltransferase (DlaT) (Mycobacterium tuberculosis, UniProt P9WIS7)
T1 sequence (P9WIS7 1-553): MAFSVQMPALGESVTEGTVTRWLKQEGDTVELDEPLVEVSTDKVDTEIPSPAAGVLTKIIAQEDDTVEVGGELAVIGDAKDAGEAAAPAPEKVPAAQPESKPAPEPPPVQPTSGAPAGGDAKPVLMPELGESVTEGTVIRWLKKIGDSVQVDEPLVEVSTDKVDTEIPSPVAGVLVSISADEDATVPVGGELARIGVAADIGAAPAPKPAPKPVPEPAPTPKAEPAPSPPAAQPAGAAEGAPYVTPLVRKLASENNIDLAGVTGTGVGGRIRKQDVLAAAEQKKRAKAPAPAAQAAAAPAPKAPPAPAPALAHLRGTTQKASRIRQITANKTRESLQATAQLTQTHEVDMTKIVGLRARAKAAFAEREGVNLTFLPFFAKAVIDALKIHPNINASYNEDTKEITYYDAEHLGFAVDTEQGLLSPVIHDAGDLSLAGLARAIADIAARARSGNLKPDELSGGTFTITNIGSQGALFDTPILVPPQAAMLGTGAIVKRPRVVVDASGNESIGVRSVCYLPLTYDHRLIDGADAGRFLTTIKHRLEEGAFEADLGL
Assay: DlaT inhibition (Dlat IC50); DTNB peroxidase assay with Lpd, DlaT and AhpD
Format: biochemical

[1] = Dlat IC50 category, Table 7, Compounds G1 to G4

## Cc1cc(N(C)C)ccc1-c1ccc(C=C2SC(=S)N(Nc3ccccc3C(=O)O)C2=O)o1 [Compound D29, 2-{5-[5-(4-Dimethylamino-2-methyl-phenyl)-furan-2-ylmethylene]-4-oxo-2-thioxo-thiazolidin-3-ylamino}-benzoic acid]
Dlat IC50 category
  IC50: 11 to 40 µM

## CSc1ccccc1-c1ccc(C=C2SC(=S)N(Nc3ccccc3C(=O)O)C2=O)o1 [Compound D30, 2-{5-[1-[5-(2-methylsulfanyl-phenyl)-furan-2-yl]-methylidene]-4-oxo-2-thioxo-thiazolidin-3-ylamino}-benzoic acid]
Dlat IC50 category
  IC50: < 10 µM

## CN(C)c1ccc(-c2ccc(C=C3SC(=S)N(Nc4ccccc4C(=O)O)C3=O)o2)cc1 [Compound D31, 2-{5-[5-(4-Dimethylamino-phenyl)-furan-2-ylmethylene]-4-oxo-2-thioxo-thiazolidin-3-ylamino}-benzoic acid]
Dlat IC50 category
  IC50: 11 to 40 µM

## O=C(O)c1ccccc1NN1C(=O)C(=Cc2ccc(-c3ccccc3Oc3ccccc3)o2)SC1=S [Compound D33, 2-{4-oxo-5-[1-[5-(2-phenoxy-phenyl)-furan-2-yl]-methylidene]-2-thioxo-thiazolidin-3-ylamino}-benzoic acid]
Dlat IC50 category
  IC50: < 10 µM

## Cc1ccccc1-c1ccc(C=C2SC(=S)N(Nc3ccccc3C(=O)O)C2=O)s1 [Compound D34, 2-{4-oxo-2-thioxo-5-[1-(5-o-tolyl-thiophen-2-yl)-methylidene]-thiazolidin-3-ylamino}-benzoic acid]
Dlat IC50 category
  IC50: < 10 µM

## O=C(O)c1ccccc1NN1C(=O)C(=Cc2ccc(-c3ccccc3Cl)s2)SC1=S [Compound D35, 2-{4-oxo-2-thioxo-5-[1-(5-2-chloro-thiophen-2-yl)-methylidene]-thiazolidin-3-ylamino}-benzoic acid]
Dlat IC50 category
  IC50: < 10 µM

## O=C(O)c1ccccc1NN1C(=O)C(=Cc2ccc(-c3ccccc3F)s2)SC1=S [Compound D36, 2-{4-oxo-2-thioxo-5-[1-(5-2-fluoro-thiophen-2-yl)-methylidene]-thiazolidin-3-ylamino}-benzoic acid]
Dlat IC50 category
  IC50: < 10 µM

## O=C(O)c1ccc(NN2C(=O)C(=Cc3ccc(-c4cccc(C(F)(F)F)c4)o3)SC2=S)cc1 [Compound D37, 4-{4-oxo-2-thioxo-5-[5-(3-trifluoromethyl-phenyl)-furan-2-ylmethylene]-thiazolidin-3-ylamino}-benzoic acid]
Dlat IC50 category
  IC50: < 10 µM

## CCc1ccc(-c2ccc(C=C3SC(=S)N(Nc4ccccc4C(=O)O)C3=O)o2)cc1 [Compound D38, 2-{5-[1-[5-(4-ethyl-phenyl)-furan-2-yl]-methylidene]-4-oxo-2-thioxo-thiazolidin-3-ylamino}-benzoic acid]
Dlat IC50 category
  IC50: < 10 µM

## O=C(O)c1ccccc1NN1C(=O)C(=Cc2ccc(-c3ccc(C(F)(F)F)cc3)o2)SC1=S [Compound D39, 2-{4-oxo-2-thioxo-5-[1-[5-(4-trifluoromethyl-phenyl)-furan-2-yl]-methylidene]-thiazolidin-3-ylamino}-benzoic acid]
Dlat IC50 category
  IC50: < 10 µM

## O=C(O)c1ccccc1NN1C(=O)C(=Cc2ccc(-c3cccc(-c4ccccc4)c3)o2)SC1=S [Compound D40, 2-{5-[1-(5-biphenyl-3-yl-furan-2-yl)-methylidene]-4-oxo-2-thioxo-thiazolidin-3-ylamino}-benzoic acid]
Dlat IC50 category
  IC50: < 10 µM

## CC(=O)Nc1ccc(-c2ccc(C=C3SC(=S)N(Nc4ccccc4C(=O)O)C3=O)o2)cc1 [Compound D41, 2-{5-[5-(4-acetylamino-phenyl)-furan-2-ylmethylene]-4-oxo-2-thioxo-thiazolidin-3-ylamino}-benzoic acid]
Dlat IC50 category
  IC50: < 10 µM

## CC(=O)c1ccc(-c2ccc(C=C3SC(=S)N(Nc4ccccc4C(=O)O)C3=O)o2)cc1 [Compound D42, 2-{5-[1-[5-(4-acetyl-phenyl)-furan-2-yl]-methylidene]-4-oxo-2-thioxo-thiazolidin-3-ylamino}-benzoic acid]
Dlat IC50 category
  IC50: < 10 µM

## O=C(O)c1ccccc1NN1C(=O)C(=Cc2ccc(-c3ccccc3F)o2)SC1=S [Compound D43, 2-{5-[1-[5-(2-fluoro-phenyl)-furan-2-yl]-methylidene]-4-oxo-2-thioxo-thiazolidin-3-ylamino}-benzoic acid]
Dlat IC50 category
  IC50: < 10 µM

## O=C(O)c1ccccc1NN1C(=O)C(=Cc2ccc(-c3cccc(CO)c3)o2)SC1=S [Compound D44, 2-{5-[1-[5-(3-hydroxymethyl-phenyl)-furan-2-yl]-methylidene]-4-oxo-2-thioxo-thiazolidin-3-ylamino}-benzoic acid]
Dlat IC50 category
  IC50: < 10 µM

## O=C(O)c1ccccc1NN1C(=O)C(=Cc2ccc(-c3ccc(F)cc3)o2)SC1=S [Compound D45, 2-{5-[1-[5-(4-fluoro-phenyl)-furan-2-yl]-methylidene]-4-oxo-2-thioxo-thiazolidin-3-ylamino}-benzoic acid]
Dlat IC50 category
  IC50: < 10 µM

## O=C(O)c1ccccc1NN1C(=O)C(=Cc2ccc(-c3ccc(OCc4ccccc4)cc3)o2)SC1=S [Compound D48, 2-{5-[1-[5-(4-benzyloxy-phenyl)-furan-2-yl]-methylidene]-4-oxo-2-thioxo-thiazolidin-3-ylamino}-benzoic acid]
Dlat IC50 category
  IC50: 11 to 40 µM

## CCCCOc1ccc(-c2ccc(C=C3SC(=S)N(Nc4ccccc4C(=O)O)C3=O)o2)cc1 [Compound D49, 2-{5-[1-[5-(4-butoxy-phenyl)-furan-2-yl]-methylidene]-4-oxo-2-thioxo-thiazolidin-3-ylamino}-benzoic acid]
Dlat IC50 category
  IC50: < 10 µM

## CS(=O)(=O)c1ccc(-c2ccc(C=C3SC(=S)N(Nc4ccccc4C(=O)O)C3=O)o2)cc1 [Compound D50, 2-{5-[5-(4-methanesulfonyl-phenyl)-furan-2-ylmethylene]-4-oxo-2-thioxo-thiazolidin-3-ylamino}-benzoic acid]
Dlat IC50 category
  IC50: < 10 µM

## Cc1ccccc1-c1ccc(C=C2SC(=S)N(Nc3ccccc3C(=O)O)C2=O)o1 [Compound D51, 2-{4-oxo-2-thioxo-5-[1-(5-o-tolyl-furan-2-yl)-methylidene]-thiazolidin-3-ylamino}-benzoic acid]
Dlat IC50 category
  IC50: < 10 µM

## CSc1cccc(-c2ccc(C=C3SC(=S)N(Nc4ccccc4C(=O)O)C3=O)o2)c1 [Compound D52, 2-{5-[1-[5-(3-methylsulfanyl-phenyl)-furan-2-yl]-methylidene]-4-oxo-2-thioxo-thiazolidin-3-ylamino}-benzoic acid]
Dlat IC50 category
  IC50: < 10 µM

## CSc1ccc(-c2ccc(C=C3SC(=S)N(Nc4ccccc4C(=O)O)C3=O)o2)cc1 [Compound D53, 2-{5-[1-[5-(4-methylsulfanyl-phenyl)-furan-2-yl]-methylidene]-4-oxo-2-thioxo-thiazolidin-3-ylamino}-benzoic acid]
Dlat IC50 category
  IC50: 11 to 40 µM

## CC(C)Oc1ccc(-c2ccc(C=C3SC(=S)N(Nc4ccccc4C(=O)O)C3=O)o2)cc1 [Compound D54, 2-{5-[5-(4-isopropoxy-phenyl)-furan-2-ylmethylene]-4-oxo-2-thioxo-thiazolidin-3-ylamino}-benzoic acid]
Dlat IC50 category
  IC50: < 10 µM

## Cc1ccc(-c2cccc(C=C3SC(=S)N(Nc4ccccc4C(=O)O)C3=O)c2)cc1 [Compound D55, 2-{5-[1-(4′-methyl-biphenyl-3-yl)-methylidene]-4-oxo-2-thioxo-thiazolidin-3-ylamino}-benzoic acid]
Dlat IC50 category
  IC50: < 10 µM

## Cc1ccc(-c2ccc(C=C3SC(=S)N(Nc4ccccc4C(=O)O)C3=O)cc2)cc1 [Compound D56, 2-{5-[1-(4′-methyl-biphenyl-4-yl)-methylidene]-4-oxo-2-thioxo-thiazolidin-3-ylamino}-benzoic acid]
Dlat IC50 category
  IC50: 11 to 40 µM

## O=C(O)c1ccccc1NN1C(=O)C(=Cc2ccc(-c3ccccc3-c3ccccc3)o2)SC1=S [Compound D57, 2-{5-[1-(5-biphenyl-2-yl-furan-2-yl)-methylidene]-4-oxo-2-thioxo-thiazolidin-3-ylamino}-benzoic acid]
Dlat IC50 category
  IC50: < 10 µM

## CCc1ccccc1-c1ccc(C=C2SC(=S)N(Nc3ccccc3C(=O)O)C2=O)o1 [Compound D58, 2-{5-[1-[5-(2-ethyl-phenyl)-furan-2-yl]-methylidene]-4-oxo-2-thioxo-thiazolidin-3-ylamino}-benzoic acid]
Dlat IC50 category
  IC50: < 10 µM

## CCCCc1ccc(-c2ccc(C=C3SC(=S)N(Nc4ccccc4C(=O)O)C3=O)o2)cc1 [Compound D59, 2-{5-[1-[5-(4-butyl-phenyl)-furan-2-yl]-methylidene]-4-oxo-2-thioxo-thiazolidin-3-ylamino}-benzoic acid]
Dlat IC50 category
  IC50: < 10 µM

## CCCc1ccc(-c2ccc(C=C3SC(=S)N(Nc4ccccc4C(=O)O)C3=O)o2)cc1 [Compound D60, 2-{5-[1-[5-(4-propyl-phenyl)-furan-2-yl]-methylidene]-4-oxo-2-thioxo-thiazolidin-3-ylamino}-benzoic acid]
Dlat IC50 category
  IC50: < 10 µM

## O=C(O)c1cccc(CCN2C(=O)C(=Cc3ccc(-c4ccccc4Cl)o3)SC2=S)c1 [Compound G1]
[1]
  IC50: < 10 µM

## O=C(O)c1cccc(CCN2C(=O)C(=Cc3ccc(-c4cccc(C(F)(F)F)c4)o3)SC2=S)c1 [Compound G2]
[1]
  IC50: < 10 µM

## O=C(O)c1cccc(CCN2C(=O)C(=Cc3ccc(-c4cc(C(F)(F)F)ccc4Cl)o3)SC2=S)c1 [Compound G3]
[1]
  IC50: < 10 µM

## O=C(O)c1cccc(CCN2C(=O)C(=Cc3ccc(-c4cc(Cl)ccc4Cl)o3)SC2=S)c1 [Compound G4]
[1]
  IC50: < 10 µM

## O=C(O)c1cccc(CCN2C(=O)C(=Cc3ccc(-c4cc5ccccc5s4)o3)SC2=S)c1 [Compound H1]
read-out: Dlat IC50 category
  IC50: 11 to 40 µM

## O=C(O)c1cccc(N2C(=O)C(=Cc3ccc(-c4cc5ccccc5s4)o3)SC2=S)c1 [Compound I1]
Dlat IC50 category
  IC50: < 10 µM
